# Source: PubChem BioAssay (NCI)
#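 96-well plates; 48 h exposure; 5 concentrations. Endpoints by linear interpolation between flanking doses. Not reached: highest tested concentration assigned. GI50 = concentration required for 50% inhibition of growth. TGI is the concentration that stops growth completely.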
# Legend:
# Assay in all cases: growth of human tumour cells (NCI), 48 h
# A498 renal = tested on: A498 renal
# ACHN renal = tested on: ACHN renal
# BT-549 breast = tested on: BT-549 breast
# CAKI-1 renal = tested on: CAKI-1 renal
# COLO 205 colon = tested on: COLO 205 colon
# EKVX NSCLC = tested on: EKVX NSCLC
# HCT-15 colon = tested on: HCT-15 colon
# HOP-62 NSCLC = tested on: HOP-62 NSCLC
# HS 578T breast = tested on: HS 578T breast
# HT29 colon = tested on: HT29 colon
# IGROV1 ovarian = tested on: IGROV1 ovarian
# KM12 colon = tested on: KM12 colon
# LOX IMVI melanoma = tested on: LOX IMVI melanoma
# M14 melanoma = tested on: M14 melanoma
# MALME-3M melanoma = tested on: MALME-3M melanoma
# MCF7 breast = tested on: MCF7 breast
# MDA-MB-231 breast = tested on: MDA-MB-231 breast
# MDA-MB-435 = tested on: MDA-MB-435
# NCI-H226 lung = tested on: NCI-H226 lung
# NCI-H23 lung = tested on: NCI-H23 lung
# NCI-H460 lung = tested on: NCI-H460 lung
# NCI-H522 lung = tested on: NCI-H522 lung
# NCI/ADR-RES ovarian = tested on: NCI/ADR-RES ovarian
# OVCAR-3 ovarian = tested on: OVCAR-3 ovarian
# OVCAR-4 ovarian = tested on: OVCAR-4 ovarian
# OVCAR-5 ovarian = tested on: OVCAR-5 ovarian
# OVCAR-8 ovarian = tested on: OVCAR-8 ovarian
# PC-3 prostate = tested on: PC-3 prostate
# RPMI-8226 leukemia = tested on: RPMI-8226 leukemia
# RXF 393 renal = tested on: RXF 393 renal
# SF-268 CNS = tested on: SF-268 CNS
# SF-295 CNS = tested on: SF-295 CNS
# SF-539 CNS = tested on: SF-539 CNS
# SK-MEL-2 melanoma = tested on: SK-MEL-2 melanoma
# SK-MEL-28 melanoma = tested on: SK-MEL-28 melanoma
# SK-MEL-5 melanoma = tested on: SK-MEL-5 melanoma
# SK-OV-3 ovarian = tested on: SK-OV-3 ovarian
# SN12C renal = tested on: SN12C renal
# SNB-75 CNS = tested on: SNB-75 CNS
# SW-620 colon = tested on: SW-620 colon
# TK-10 renal = tested on: TK-10 renal
# U251 CNS = tested on: U251 CNS
# UACC-257 melanoma = tested on: UACC-257 melanoma
# UACC-62 melanoma = tested on: UACC-62 melanoma
# UO-31 renal = tested on: UO-31 renal
# 786-0 renal = tested on: 786-0 renal
# A549 NSCLC = tested on: A549 NSCLC
# CCRF-CEM leukemia = tested on: CCRF-CEM leukemia
# DU-145 prostate = tested on: DU-145 prostate
# HCC-2998 colon = tested on: HCC-2998 colon
# HCT-116 colon = tested on: HCT-116 colon
# HL-60(TB) leukemia = tested on: HL-60(TB) leukemia
# HOP-92 NSCLC = tested on: HOP-92 NSCLC
# K-562 leukemia = tested on: K-562 leukemia
# SNB-19 CNS = tested on: SNB-19 CNS
structure (smiles),measurement,setting,value
C#CC[C@@H]1C[C@]2(C)[C@H]3CC[C@@H]4[C@H]5C(C(=C)C)CC[C@]5(C(=O)NCCCCN)CC[C@@]4(C)[C@]3(C)CC[C@H]2C(C)(C)[C@H]1OC(C)=O (stereo not given in full),GI50,A498 renal,1780 nM
same,TGI,A498 renal,3190 nM
same,GI50,ACHN renal,1650 nM
same,TGI,ACHN renal,3010 nM
same,GI50,BT-549 breast,1760 nM
same,TGI,BT-549 breast,3340 nM
same,GI50,CAKI-1 renal,1600 nM
same,TGI,CAKI-1 renal,3070 nM
same,GI50,COLO 205 colon,1680 nM
same,TGI,COLO 205 colon,3300 nM
same,GI50,EKVX NSCLC,1840 nM
same,TGI,EKVX NSCLC,3780 nM
same,GI50,HCT-15 colon,1730 nM
same,TGI,HCT-15 colon,3450 nM
same,GI50,HOP-62 NSCLC,1910 nM
same,TGI,HOP-62 NSCLC,4070 nM
same,GI50,HS 578T breast,1820 nM
same,TGI,HS 578T breast,3810 nM
same,GI50,HT29 colon,1900 nM
same,TGI,HT29 colon,4040 nM
same,GI50,IGROV1 ovarian,1730 nM
same,TGI,IGROV1 ovarian,3350 nM
same,GI50,KM12 colon,1810 nM
same,TGI,KM12 colon,3360 nM
same,GI50,LOX IMVI melanoma,1560 nM
same,TGI,LOX IMVI melanoma,3000 nM
same,GI50,M14 melanoma,1770 nM
same,TGI,M14 melanoma,3460 nM
same,GI50,MALME-3M melanoma,1680 nM
same,TGI,MALME-3M melanoma,3330 nM
same,GI50,MCF7 breast,1670 nM
same,TGI,MCF7 breast,3860 nM
same,GI50,MDA-MB-231 breast,1790 nM
same,TGI,MDA-MB-231 breast,3450 nM
same,GI50,MDA-MB-435,1730 nM
same,TGI,MDA-MB-435,3190 nM
same,GI50,NCI-H226 lung,2030 nM
same,TGI,NCI-H226 lung,4840 nM
same,GI50,NCI-H23 lung,1850 nM
same,TGI,NCI-H23 lung,3530 nM
same,GI50,NCI-H460 lung,1910 nM
same,TGI,NCI-H460 lung,3710 nM
same,GI50,NCI-H522 lung,1800 nM
same,TGI,NCI-H522 lung,3670 nM
same,GI50,NCI/ADR-RES ovarian,1820 nM
same,TGI,NCI/ADR-RES ovarian,3980 nM
same,GI50,OVCAR-3 ovarian,1780 nM
same,TGI,OVCAR-3 ovarian,3330 nM
same,GI50,OVCAR-4 ovarian,1760 nM
same,TGI,OVCAR-4 ovarian,3330 nM
same,GI50,OVCAR-5 ovarian,1670 nM
same,TGI,OVCAR-5 ovarian,3060 nM
same,GI50,OVCAR-8 ovarian,2210 nM
same,TGI,OVCAR-8 ovarian,5340 nM
same,GI50,PC-3 prostate,1640 nM
same,TGI,PC-3 prostate,3170 nM
same,GI50,RPMI-8226 leukemia,2100 nM
same,TGI,RPMI-8226 leukemia,5060 nM
same,GI50,RXF 393 renal,1550 nM
same,TGI,RXF 393 renal,3140 nM
same,GI50,SF-268 CNS,1850 nM
same,TGI,SF-268 CNS,3930 nM
same,GI50,SF-295 CNS,1840 nM
same,TGI,SF-295 CNS,3410 nM
same,GI50,SF-539 CNS,1660 nM
same,TGI,SF-539 CNS,3110 nM
same,GI50,SK-MEL-2 melanoma,1710 nM
same,TGI,SK-MEL-2 melanoma,3400 nM
same,GI50,SK-MEL-28 melanoma,1760 nM
same,TGI,SK-MEL-28 melanoma,3250 nM
same,GI50,SK-MEL-5 melanoma,1800 nM
same,TGI,SK-MEL-5 melanoma,3270 nM
same,GI50,SK-OV-3 ovarian,1940 nM
same,TGI,SK-OV-3 ovarian,3540 nM
same,GI50,SN12C renal,1730 nM
same,TGI,SN12C renal,3340 nM
same,GI50,SNB-75 CNS,1410 nM
same,TGI,SNB-75 CNS,2780 nM
same,GI50,SW-620 colon,1830 nM
same,TGI,SW-620 colon,3740 nM
same,GI50,TK-10 renal,1860 nM
same,TGI,TK-10 renal,3480 nM
same,GI50,U251 CNS,1810 nM
same,TGI,U251 CNS,3510 nM
same,GI50,UACC-257 melanoma,1890 nM
same,TGI,UACC-257 melanoma,3770 nM
same,GI50,UACC-62 melanoma,1820 nM
same,TGI,UACC-62 melanoma,3260 nM
same,GI50,UO-31 renal,1560 nM
same,TGI,UO-31 renal,2950 nM
CNCCCNc1nc2ccccc2c2c(=O)c3cc(F)ccc3sc12,GI50,786-0 renal,1440 nM
same,TGI,786-0 renal,2870 nM
same,GI50,A498 renal,1350 nM
same,TGI,A498 renal,2700 nM
same,GI50,A549 NSCLC,1660 nM
same,TGI,A549 NSCLC,3610 nM
same,GI50,ACHN renal,1490 nM
same,TGI,ACHN renal,2810 nM
same,GI50,BT-549 breast,1790 nM
same,TGI,BT-549 breast,3320 nM
same,GI50,CAKI-1 renal,1480 nM
same,TGI,CAKI-1 renal,2800 nM
same,GI50,CCRF-CEM leukemia,1800 nM
same,TGI,CCRF-CEM leukemia,4340 nM
same,GI50,COLO 205 colon,1770 nM
same,TGI,COLO 205 colon,3780 nM
same,GI50,DU-145 prostate,1660 nM
same,TGI,DU-145 prostate,3030 nM
same,GI50,EKVX NSCLC,1550 nM
same,TGI,EKVX NSCLC,2940 nM
same,GI50,HCC-2998 colon,1680 nM
same,TGI,HCC-2998 colon,3290 nM
same,GI50,HCT-116 colon,1500 nM
same,TGI,HCT-116 colon,2920 nM
same,GI50,HCT-15 colon,1420 nM
same,TGI,HCT-15 colon,2760 nM
same,GI50,HL-60(TB) leukemia,1810 nM
same,TGI,HL-60(TB) leukemia,3690 nM
same,GI50,HOP-62 NSCLC,1500 nM
same,TGI,HOP-62 NSCLC,3230 nM
same,GI50,HOP-92 NSCLC,1020 nM
same,TGI,HOP-92 NSCLC,2420 nM
same,GI50,HS 578T breast,1450 nM
same,TGI,HS 578T breast,3110 nM
same,GI50,HT29 colon,1650 nM
same,TGI,HT29 colon,3450 nM
same,GI50,IGROV1 ovarian,1370 nM
same,TGI,IGROV1 ovarian,2760 nM
same,GI50,K-562 leukemia,1900 nM
same,TGI,K-562 leukemia,5080 nM
same,GI50,KM12 colon,1630 nM
same,TGI,KM12 colon,3100 nM
same,GI50,LOX IMVI melanoma,1470 nM
same,TGI,LOX IMVI melanoma,2800 nM
same,GI50,M14 melanoma,1720 nM
same,TGI,M14 melanoma,3220 nM
same,GI50,MALME-3M melanoma,1550 nM
same,TGI,MALME-3M melanoma,3010 nM
same,GI50,MCF7 breast,1410 nM
same,TGI,MCF7 breast,2950 nM
same,GI50,MDA-MB-231 breast,1330 nM
same,TGI,MDA-MB-231 breast,2700 nM
same,GI50,MDA-MB-435,1590 nM
same,TGI,MDA-MB-435,2940 nM
same,GI50,NCI-H226 lung,1720 nM
same,TGI,NCI-H226 lung,3280 nM
same,GI50,NCI-H23 lung,1690 nM
same,TGI,NCI-H23 lung,3150 nM
same,GI50,NCI-H460 lung,1380 nM
same,TGI,NCI-H460 lung,2670 nM
same,GI50,NCI-H522 lung,1860 nM
same,TGI,NCI-H522 lung,3730 nM
same,GI50,OVCAR-3 ovarian,1560 nM
same,TGI,OVCAR-3 ovarian,2950 nM
same,GI50,OVCAR-4 ovarian,1690 nM
same,TGI,OVCAR-4 ovarian,3250 nM
same,GI50,OVCAR-5 ovarian,1620 nM
same,TGI,OVCAR-5 ovarian,3030 nM
same,GI50,PC-3 prostate,1640 nM
same,TGI,PC-3 prostate,3250 nM
same,GI50,RXF 393 renal,1340 nM
same,TGI,RXF 393 renal,2750 nM
same,GI50,SF-268 CNS,1470 nM
same,TGI,SF-268 CNS,2990 nM
same,GI50,SF-295 CNS,1810 nM
same,TGI,SF-295 CNS,3230 nM
same,GI50,SF-539 CNS,1740 nM
same,TGI,SF-539 CNS,3160 nM
same,GI50,SK-MEL-2 melanoma,1940 nM
same,TGI,SK-MEL-2 melanoma,3650 nM
same,GI50,SK-MEL-28 melanoma,1830 nM
same,TGI,SK-MEL-28 melanoma,3250 nM
same,GI50,SK-MEL-5 melanoma,1690 nM
same,TGI,SK-MEL-5 melanoma,3070 nM
same,GI50,SN12C renal,1610 nM
same,TGI,SN12C renal,3050 nM
same,GI50,SNB-19 CNS,1650 nM
same,TGI,SNB-19 CNS,3110 nM
same,GI50,SNB-75 CNS,1410 nM
same,TGI,SNB-75 CNS,2760 nM
same,GI50,SW-620 colon,1480 nM
same,TGI,SW-620 colon,2850 nM
same,GI50,TK-10 renal,1800 nM
same,TGI,TK-10 renal,3410 nM
same,GI50,UACC-257 melanoma,1920 nM
same,TGI,UACC-257 melanoma,3740 nM
same,GI50,UACC-62 melanoma,1760 nM
same,TGI,UACC-62 melanoma,3170 nM
same,GI50,UO-31 renal,1310 nM
same,TGI,UO-31 renal,2580 nM
